*1 amine or outer side, *2 acyl side, *3 side chain or, on linkers, in order; H or OH if unused. Where a SMILES comes first, the peptide text is derived from it. Side-chain parts run from the residue outwards. [ ]: non-standard residue; d: D form. The star is where a group is joined. C20 diacid = O=C(O)CCCCCCCCCCCCCCCCCCC(=O)*; γGlu = O=C(O)[C@H](CCC(=O)[*:2])N[*:1]; αMeL = CC(C)C[C@](C)(N)C(=O)O; AEEA = NCCOCCOCC(=O)O; Aib = CC(C)(N)C(=O)O
Columns and labels:
[1] = molecular target: T1, human glucagon receptor (GcgR) (Homo sapiens, UniProt P47871); test: Radioligand competition binding (SPA), human GcgR membranes
T1 construct: expressed in transfected cells; host or cells: HEK293 (membranes)
Description: (§1) Radioligand competition binding assays are run to determine the equilibrium dissociation constant for exemplary compounds and comparator molecules.
(§2) Competition curves are plotted as the percent specific inhibition (y-axis) versus log concentration of compound (x-axis) and analyzed using a four parameter nonlinear regression fit with variable slope (ABase or Genedata).

[2] = molecular target: T2, human GIP receptor (GIPR) (Homo sapiens, UniProt P48546); test: Radioligand competition binding (SPA), human GIPR membranes
T2 construct: expressed in transfected cells; host or cells: HEK293 (membranes)
T2 sequence (P48546 22-466): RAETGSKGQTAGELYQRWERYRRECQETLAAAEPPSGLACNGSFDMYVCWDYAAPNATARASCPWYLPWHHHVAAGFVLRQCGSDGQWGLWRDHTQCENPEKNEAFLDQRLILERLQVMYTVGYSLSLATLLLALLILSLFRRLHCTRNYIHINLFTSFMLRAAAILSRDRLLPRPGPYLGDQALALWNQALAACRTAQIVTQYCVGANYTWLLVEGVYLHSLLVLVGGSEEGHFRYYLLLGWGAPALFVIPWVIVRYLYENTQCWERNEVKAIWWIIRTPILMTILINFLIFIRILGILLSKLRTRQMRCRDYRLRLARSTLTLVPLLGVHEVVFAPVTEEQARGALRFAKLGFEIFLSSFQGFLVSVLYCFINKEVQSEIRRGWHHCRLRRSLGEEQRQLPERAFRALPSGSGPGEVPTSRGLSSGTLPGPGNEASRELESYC
Description: as §1, §2

[3] = molecular target: T3, GLP-1 receptor (GLP-1R) (Homo sapiens, UniProt P43220); test: Radioligand competition binding (SPA), human GLP-1R membranes
T3 construct: expressed in transfected cells; host or cells: HEK293 (membranes)
Description: as §1, §2

[4] = Pharmacokinetics in male Sprague Dawley rats
[5] = male, Sprague-Dawley, rat, plasma, sc, 100 nmol/kg
[6] = single subcutaneous 100 nMol/kg, male Sprague Dawley rats, n = 3

T1 sequence (P47871 26-477): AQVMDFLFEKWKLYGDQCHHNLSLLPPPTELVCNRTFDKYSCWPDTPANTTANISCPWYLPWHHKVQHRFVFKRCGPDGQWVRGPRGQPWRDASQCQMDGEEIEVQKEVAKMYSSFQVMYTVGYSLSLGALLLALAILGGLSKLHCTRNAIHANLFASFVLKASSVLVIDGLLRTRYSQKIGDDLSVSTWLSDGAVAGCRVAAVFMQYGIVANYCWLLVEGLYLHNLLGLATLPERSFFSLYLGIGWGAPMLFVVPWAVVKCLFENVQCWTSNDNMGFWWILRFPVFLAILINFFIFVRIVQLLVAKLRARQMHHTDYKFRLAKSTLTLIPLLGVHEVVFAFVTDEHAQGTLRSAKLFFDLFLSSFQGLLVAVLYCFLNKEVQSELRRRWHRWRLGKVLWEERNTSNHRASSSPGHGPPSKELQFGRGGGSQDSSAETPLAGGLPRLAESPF
T3 sequence (P43220 24-463): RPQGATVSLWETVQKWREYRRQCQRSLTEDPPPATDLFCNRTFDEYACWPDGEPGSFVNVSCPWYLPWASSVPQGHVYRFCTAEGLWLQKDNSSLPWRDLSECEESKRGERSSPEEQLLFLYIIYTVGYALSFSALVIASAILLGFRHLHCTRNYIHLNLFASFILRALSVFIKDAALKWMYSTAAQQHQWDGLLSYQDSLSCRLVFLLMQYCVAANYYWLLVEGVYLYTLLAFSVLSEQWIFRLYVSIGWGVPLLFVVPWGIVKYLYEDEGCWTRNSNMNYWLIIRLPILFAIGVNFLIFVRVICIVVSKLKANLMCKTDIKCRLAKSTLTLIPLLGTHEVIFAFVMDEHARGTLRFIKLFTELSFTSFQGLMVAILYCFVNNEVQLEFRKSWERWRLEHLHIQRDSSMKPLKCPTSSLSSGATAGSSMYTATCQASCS

SMILES | Ki [1] [nM] | Ki [2] [nM] | Ki [3] [nM] | CL/F [4, 5] [mL/h/kg] | Tmax [4, 5] [h] | half-life [4, 5] [h] | AUCINF_D_obs [4, 6] [hr*kg*nmol/L/nmol] | Cmax/D [4, 6] [kg*nmol/L/nmol]
CC[C@H](C)[C@H](NC(=O)[C@H](Cc1ccccc1)NC(=O)[C@H](C)NC(=O)[C@H](CCC(N)=O)NC(=O)[C@H](C)NC(=O)[C@H](C)NC(=O)[C@H](CCCCNC(=O)COCCOCCNC(=O)COCCOCCNC(=O)CC[C@H](NC(=O)CCCCCCCCCCCCCCCCCCC(=O)O)C(=O)O)NC(=O)[C@H](CCCCN)NC(=O)[C@H](CC(=O)O)NC(=O)[C@H](CC(C)C)NC(=O)[C@](C)(CC(C)C)NC(=O)[C@@H](NC(=O)[C@H](CO)NC(=O)[C@H](Cc1ccc(O)cc1)NC(=O)[C@H](CC(=O)O)NC(=O)[C@H](CO)NC(=O)[C@@H](NC(=O)[C@H](Cc1ccccc1)NC(=O)[C@@H](NC(=O)CNC(=O)[C@H](CCC(N)=O)NC(=O)C(C)(C)NC(=O)[C@@H](N)Cc1ccc(O)cc1)[C@@H](C)O)[C@@H](C)O)[C@@H](C)CC)C(=O)N[C@@H](CCC(=O)O)C(=O)N[C@@H](Cc1ccc(O)cc1)C(=O)N[C@@H](CC(C)C)C(=O)N[C@@H](CC(C)C)C(=O)N[C@@H](CCC(=O)O)C(=O)NCC(=O)NCC(=O)N1CCC[C@H]1C(=O)N[C@@H](CO)C(=O)N[C@@H](CO)C(=O)NCC(=O)N[C@@H](C)C(=O)N1CCC[C@H]1C(=O)N1CCC[C@H]1C(=O)N1CCC[C@H]1C(=O)N[C@@H](CO)C(N)=O [Example 6] (H-Y[Aib]QGTFTSDYSI[αMeL]LDKK([AEEA-AEEA-γGlu-C20 diacid])AAQAFIEYLLEGGPSSGAPPPS-NH2; N-terminus assumed) | 0.835 | 0.249 | 36.7 | – | – | – | – | –
CC[C@H](C)[C@H](NC(=O)[C@H](Cc1ccccc1)NC(=O)[C@H](C)NC(=O)C(C)(C)NC(=O)[C@H](CCC(N)=O)NC(=O)[C@H](C)NC(=O)[C@H](CCCCNC(=O)COCCOCCNC(=O)CC[C@H](NC(=O)CCCCCCCCCCCCCCCCCCC(=O)O)C(=O)O)NC(=O)[C@H](CCCCN)NC(=O)[C@H](CC(=O)O)NC(=O)[C@H](CC(C)C)NC(=O)[C@](C)(CC(C)C)NC(=O)[C@@H](NC(=O)[C@H](CO)NC(=O)[C@H](Cc1ccc(O)cc1)NC(=O)[C@H](CC(=O)O)NC(=O)[C@H](CO)NC(=O)[C@@H](NC(=O)[C@H](Cc1ccccc1)NC(=O)[C@@H](NC(=O)CNC(=O)[C@H](CCC(N)=O)NC(=O)C(C)(C)NC(=O)[C@@H](N)Cc1ccc(O)cc1)[C@@H](C)O)[C@@H](C)O)[C@@H](C)CC)C(=O)N[C@@H](CCC(=O)O)C(=O)N[C@@H](Cc1ccc(O)cc1)C(=O)N[C@@H](CC(C)C)C(=O)N[C@@H](CC(C)C)C(=O)N[C@@H](CCC(=O)O)C(=O)NCC(=O)NCC(=O)N1CCC[C@H]1C(=O)N[C@@H](CO)C(=O)N[C@@H](CO)C(=O)NCC(=O)N[C@@H](C)C(=O)N1CCC[C@H]1C(=O)N1CCC[C@H]1C(=O)N1CCC[C@H]1C(=O)N[C@@H](CO)C(N)=O [Example 12] | 5.6 | – | – | 5.1 | 24 | 26.5 | 197.1 | 3.7

Reference: patent publication US11542313B2, “Incretin analogs and uses thereof” (Eli Lilly and Company, priority 2017, dated 2023)
